Columns and labels:
WTB [1] = assay: Trap type: four Lindgren funnel traps and intercept panel trap baited with X; format: in vivo, Pityophthorus juglandis; details: for trap catches, female WTB / trap catches, male WTB: 15-80 mg/d
Procedure: In another set of experiments, the flight response of WTB to four types of Lindgren funnel traps (Contech) and an intercept panel trap (Alpha Scents Inc., Portland Oreg., product # AST0031) was tested at Wolfskill Experimental Orchards in mid-summer. Each trap was baited with the commercial formulation of 3-methyl-2-buten-1-ol (15-80 mg/d, Contech) hung inside the middle funnel of each funnel trap or in a recess in the middle of the cross vane panels of the panel trap. Each trap cup was filled with propylene glycol as described above and the traps were suspended from the top of a 3 m metal conduit pole. Three blocks of traps were installed and trap catches were collected daily when the flight activity was high. The five treatments were re-randomized among the five trap stations within each of the three blocks each time that the traps were emptied.
Statistical Analyses. Analyses of treatment effects for the tests of trap type were performed by using Friedman's non-parametric analysis of variance or a sign test, depending on the number of treatments. (See Zar, J. H. 2010. Biostatistical Analysis. 5th ed. Pearson Prentice Hall, Englewood Cliffs, N.J.) Analysis of treatment effects for the Rain•X experiment was performed by using a Wilcoxon paired sample test. Id. Multiple comparisons for experiments with more than two treatments were performed with an a posteriori Nemenyi test with experimentwise α=0.05. Id. In all cases, male and female WTB were analyzed separately. Proportions of female WTB responding to treatments were calculated and 95% confidence intervals determined by using the Clopper-Pearson method. Id.

WTB [2] = assay: Example 2 Field Test 3: X and racemic trans-pityol; format: in vivo, Pityophthorus juglandis; details: 4-unit Lindgren funnel traps
Procedure: Finally, a flight bioassay of the effect of the compound racemic trans-“pityol” [2-(1-hydroxy-1-methylethyl)-5-methyltetrahydrofuran] was conducted in late summer/early fall at Wolfskill Experimental Orchards. Pityol is a component of the aggregation pheromone of conifer-infesting Pityophthorus species. The response of WTB to racemic trans-pityol (formulated in a polyvinylchloride plastic bubble cap release device, 40 mg load, 0.2 mg/d release rate at 20° C., product #300000272, Contech Enterprises) and pityol in combination with 3-methyl-2-buten-1-ol (release rate 15-80 mg/d, LDPE plastic pouch Contech) was tested (Table 3, Field Test 3). The four treatments were replicated in three spatial blocks and the treatments were re-randomized among the four trap stations in a block each time the traps were emptied (nearly every day).
(§1) Statistical Analyses. Analysis of treatment effects for the pouch vs. bottle experiment was done by using a sign test. (See Zar, J. H. 2010. Biostatistical Analysis. 5th ed. Pearson Prentice Hall, Englewood Cliffs, N.J.) The other four experiments were analyzed for treatment effect by using Friedman's non-parametric analysis of variance. Id. In all experiments, males and females were analyzed separately. All treatments within experiments yielding a significant treatment effect were compared by using an a posteriori Nemenyi test with experimentwise α=0.05. Id. For all experiments, differences among proportions of female WTB responding to treatments were analyzed by comparing 95% confidence intervals determined with the Clopper-Pearson method. Id.

WTB [3] = assay: Two release rate (pouch vs. bottle) experiment, 4-unit Lindgren funnel traps; format: in vivo, Pityophthorus juglandis; details: for trap catches, female WTB / trap catches, male WTB: N=40
Procedure: Field Testing of Various Release Rates of 3-methyl-2-buten-1-ol. The flight response of WTB to two release rates of 3-methyl-2-buten-1-ol was tested at the Wolfskill Experimental Orchards (the Juglans collection of the USDA ARS National Clonal Germplasm Repository in Winters, Solano Co., Calif.) in late spring. The two release rates were: 1) 15-80 mg/d (depending on temperature, as per manufacturer's data), delivered from a commercially available LDPE plastic pouch (Product #300000736, RD-1039, Contech Enterprises Inc., Delta, BC, Canada); and 2) 5 mg/d (based on laboratory assessments at 25° C. and 30° C.), delivered from a 15 ml polyethylene bottle charged with 15 ml of 3-methyl-2-buten-1-ol [≧98% chemical purity, product #W364703, SAFC (=Sigma-Aldrich), St. Louis Mo.]. The pouch or bottle was suspended in the middle of a 4-unit Lindgren funnel trap (Contech), attached to the funnel strut so it rested on the inside surface of the third funnel (counted from the trap top), without blocking the central axis/interior hole of the trap. The trap cup was filled with propylene glycol-based recreational vehicle/marine antifreeze to a depth of about 2.5 to 5 cm, and the traps were hung from poles at a height of approximately 3 m. (See Seybold, S. J., Dallara, P. L., Hishinuma, S. M., and Flint, M. L. Detecting and Identifying the Walnut Twig Beetle: Monitoring Guidelines for the Invasive Vector of Thousand Cankers Disease of Walnut, University of California Agriculture and Natural Resources, Statewide Integrated Pest Management Program, 11 pp., Apr. 30, 2012). The two treatments were replicated in four spatial blocks and the treatments were re-randomized between the two trap stations in a block each time the traps were emptied (nearly every day).
as §1

P. juglandis = assay: GC-EAD (electroantennal detection) of volatile extract; parameters: species or system Pityophthorus juglandis; details: extract of J. hindsii with male and female P. juglandis feeding 45 hr
Procedure: Gas Chromatography-Electroantennal Detection (GC-EAD). GC-EAD analysis was performed on the extract of walnut (Juglans hindsii) with male and female P. juglandis feeding for 45 hr (pentane extract (7)). The sample was analyzed with an HP5890 GC with the following conditions: DB-5 column 30 m×0.32, oven 50° C. for 1 min, temperature programmed at 20° C./min to a final temperature of 280° C.

[4] = X 15-80 mg/d, pityol 0.2 mg/d, N=93
[5] = release rate 5 mg/d (bottle with 15 ml load)
[6] = release rate 15-80 mg/d (pouch)

CC(C)=CCO [X, 3-methyl-2-buten-1-ol]
trap catches, female WTB (WTB [1]; 4-unit Lindgren funnel trap): 231 | trap catches, male WTB (WTB [1]; 4-unit Lindgren funnel trap): 72 | proportion of females responding (WTB [1]; 4-unit trap): 0.76 | proportion of females responding (WTB [1]; 8-unit trap): 0.76 | trap catches, female WTB (WTB [1]; 8-unit trap): 634 | trap catches, male WTB (WTB [1]; 8-unit trap): 202 | proportion of females responding (WTB [1]; 12-unit trap): 0.72 | trap catches, female WTB (WTB [1]; 12-unit trap): 892 | trap catches, male WTB (WTB [1]; 12-unit trap): 352 | proportion of females responding (WTB [1]; 16-unit trap): 0.73 | trap catches, female WTB (WTB [1]; 16-unit trap): 618 | trap catches, male WTB (WTB [1]; 16-unit trap): 233 | trap catches, female WTB (WTB [1]; intercept panel trap): 296 | trap catches, male WTB (WTB [1]; intercept panel trap): 128 | proportion of females responding (WTB [1]; panel trap): 0.70 | proportion of females responding (WTB [2]): 0.80 | trap catches, female WTB (WTB [2]; [4]): 2100 | trap catches, male WTB (WTB [2]; [4]): 539 | proportion of females responding (WTB [3]; higher release rate (15-80 mg/d)): 0.71 | proportion of females responding (WTB [3]; lower release rate (5 mg/d)): 0.63 | trap catches, female WTB (WTB [3]; [5]): 3072 | trap catches, male WTB (WTB [3]; [5]): 1828 | trap catches, female WTB (WTB [3]; [6]): 3085 | trap catches, male WTB (WTB [3]; [6]): 1284 | difference between release rate treatments (WTB [3]; two-sided sign test, pouch vs bottle): male response was greater for the lower release rate plastic bottle treatment | antennal activity by GC-EAD (P. juglandis): antenally active

— US20130014428A1, “METHODS OF MONITORING AND CONTROLLING THE WALNUT TWIG BEETLE, PITYOPHTHORUS JUGLANDIS” (The United States of America as Represented by the …, priority 2011, published 2013)
